Where a name gives a salt, the structure may show the parent alone.
Assay: in vitro
Conditions: rat, gh3-tre-luc cells

Compound	CC50 at 24 h (AC50 (uM) modified / 1000)	further results
CCCCC(CC)COC(=O)CCCCCCCCC(=O)OCC(CC)CCCC (centres unmarked) [Bis(2-ethylhexyl) decanedioate]	> 90 µM	
CCCCC(CC)COC(=O)/C=C\C(=O)OCC(CC)CCCC (centres unmarked) [Bis(2-ethylhexyl) maleate]	> 90 µM	
CCCCC(CC)COC(=O)CCCCCCCC(=O)OCC(CC)CCCC (centres unmarked) [Bis(2-ethylhexyl) nonanedioate]	> 90 µM	
CCCCC(CC)COP(=O)(O)OCC(CC)CCCC (centres unmarked) [Bis(2-ethylhexyl) phosphate]	63.4 µM	
CCCCC(CC)COC(=O)c1ccc(C(=O)OCC(CC)CCCC)cc1 (centres unmarked) [Bis(2-ethylhexyl) terephthalate]	> 90 µM	
CCCCC(CC)COC(=O)c1c(Br)c(Br)c(Br)c(Br)c1C(=O)OCC(CC)CCCC (centres unmarked) [Bis(2-ethylhexyl) tetrabromophthalate]		CC50 at 24 h (AC50 (uM) modified / 1000, Tox21_110001=Tox21_302404, viability, 1 nM T3 present, 24 h): > 70 µM
CCCCC(CC)COC(=O)CCCCC(=O)OCC(CC)CCCC (centres unmarked) [Bis(2-ethylhexyl)hexanedioate]	> 90 µM	
Cc1occc1SSc1ccoc1C [Bis(2-methyl-3-furyl)disulfide]	> 90 µM	
CC1CC(CC2CCC(N)C(C)C2)CCC1N (centres unmarked) [Bis(4-amino-3-methylcyclohexyl)methane]	46.8 µM	
Oc1ccc(C(=C(Cl)Cl)c2ccc(O)cc2)cc1 [Bis(4-hydroxyphenyl)-2,2-dichloroethylene]	> 90 µM	
Oc1ccc(Cc2ccc(O)cc2)cc1 [Bis(4-hydroxyphenyl)methane]	> 90 µM	
CCOC(=S)SSC(=S)OCC [Bis(ethylxanthogen)]	> 90 µM	
C=C(C)C(=O)OCCOP(=O)(O)OCCOC(=O)C(=C)C [Bis(methacryloyloxyethyl) hydrogen phosphate]	> 90 µM	
CCCCC(CC)CNCC(CC)CCCC (centres unmarked) [Bis-2-ethylhexylamine]	> 90 µM	
CCCCOCCOCCOC(=O)CCCCC(=O)OCCOCCOCCCC [Bis[2-(2-butoxyethoxy)ethyl] adipate]	> 90 µM	
CN(C)CCOCCN(C)C [Bis[2-(dimethylamino)ethyl]ether]	> 90 µM	
CC(C)=CCC[C@@](C)(O)[C@H]1CC=C(C)CC1 [Bisabolol]	> 50 µM	
CC(=O)Oc1ccc(C(c2ccc(OC(C)=O)cc2)c2ccccn2)cc1 [Bisacodyl]	> 90 µM	
C/C(=C(\CCOC(=O)c1ccccc1)SS/C(CCOC(=O)c1ccccc1)=C(/C)N(C=O)Cc1cnc(C)nc1N)N(C=O)Cc1cnc(C)nc1N [Bisbentiamine]	25.6 µM	
O=C1C=CC(=O)N1c1ccc(Cc2ccc(N3C(=O)C=CC3=O)cc2)cc1 [Bismaleimide]	6.41 µM	
CC(C)(C)CC(C)(C)c1cc(Cc2cc(C(C)(C)CC(C)(C)C)cc(-n3nc4ccccc4n3)c2O)c(O)c(-n2nc3ccccc3n2)c1 [Bisoctrizole]	> 50 µM	
CC(C)NCC(O)COc1ccc(COCCOC(C)C)cc1 (centres unmarked) [Bisoprolol fumarate]	> 50 µM	
CC(=O)Oc1ccc(C2(c3ccc(OC(C)=O)cc3)Oc3ccccc3NC2=O)cc1 [Bisoxatin acetate]	4.41 µM	
CC(c1ccc(O)cc1)c1ccc(O)cc1 [Bisphenol E]	> 90 µM	
Oc1ccc(C2(c3ccc(O)cc3)CCCCC2)cc1 [Bisphenol Z]	39.8 µM	

Compound	CC50 at 24 h (AC50 (uM) modified / 1000)	further results
COc1cc(OC)nc(Oc2cccc(Oc3nc(OC)cc(OC)n3)c2C(=O)O)n1 [Bispyribac-sodium]	> 90 µM	
CC(C)C1OCCN1CCOC(=O)NCCCCCCNC(=O)OCCN1CCOC1C(C)C (centres unmarked) [Bis{2-[2-(propan-2-yl)-1,3-oxazolidin-3-yl]ethyl} hexane-1,6-diylbiscarbamate]	> 90 µM	
[O-][S+](c1cc(Cl)cc(Cl)c1O)c1cc(Cl)cc(Cl)c1O [Bithionoloxide]	46 µM	
S=C=Nc1ccc(N=C=S)cc1 [Bitoscanate]	> 50 µM	
NC(=O)NNC(N)=O [Biurea]	> 90 µM	
COC(=O)/C=C/C(C)=C\C=C\C(C)=C\C=C\C=C(C)\C=C\C=C(C)\C=C\C(=O)O [Bixin]	> 90 µM	
CCN1CCN(c2cc(-c3ccc(F)cc3)c3c(n2)CCCCCC3)CC1 [Blonanserin]	20.1 µM	
Cc1cc2c(OCC(CNC(C)(C)C)OC(=O)c3ccccc3)cccc2[nH]1 (centres unmarked) [Bopindolol]	42.5 µM	
CC(=O)O[C@@H]1C[C@@H]2CC[C@@]1(C)C2(C)C [Bornyl acetate]	> 90 µM	
O=C(Nc1ccccc1-c1ccc(Cl)cc1)c1cccnc1Cl [Boscalid]	> 100 µM	
COc1ccccc1Oc1c(NS(=O)(=O)c2ccc(C(C)(C)C)cc2)nc(-c2ncccn2)nc1OCCO [Bosentan]	> 50 µM	
COc1cc(Nc2c(C#N)cnc3cc(OCCCN4CCN(C)CC4)c(OC)cc23)c(Cl)cc1Cl [Bosutinib methanoate]	8.85 µM	
CC(C)(C)OC(=O)c1ncn2c1[C@@H]1CCCN1C(=O)c1c(Br)cccc1-2 [Bretazenil]		CC50 at 24 h (AC50 (uM) modified / 1000, Tox21_110001=Tox21_111947, viability, 1 nM T3 present, 24 h): > 50 µM
CC[N+](C)(C)Cc1ccccc1Br [Bretylium tosylate]	> 20 µM	
CCN(CC)c1ccc(C(=C2C=CC(=[N+](CC)CC)C=C2)c2ccccc2)cc1 [Brilliant Green]	0.384 µM	
Brc1c(NC2=NCCN2)ccc2nccnc12 [Brimonidine]	> 50 µM	
CCN[C@H]1CN(CCCOC)S(=O)(=O)c2sc(S(N)(=O)=O)cc21 [Brinzolamide]	> 20 µM	
O=c1[nH]c(=O)n([C@H]2C[C@H](O)[C@@H](CO)O2)cc1/C=C/Br [Brivudine]	> 50 µM	
COc1cc(CC(C)N)c(OC)cc1Br (centres unmarked) [Brolamfetamine hydrobromide]		CC50 at 24 h (AC50 (uM) modified / 1000, Tox21_110001=Tox21_113494, viability, 1 nM T3 present, 24 h): 25.6 µM
CCC(C)n1c(=O)[nH]c(C)c(Br)c1=O (centres unmarked) [Bromacil]	> 90 µM	
O=c1oc2ccccc2c(O)c1C(CC(O)c1ccc(-c2ccc(Br)cc2)cc1)c1ccccc1 (centres unmarked) [Bromadiolone]	> 90 µM	
Nc1c(S(=O)(=O)O)cc(Br)c2c1C(=O)c1ccccc1C2=O [Bromamine acid sodium salt]	38.3 µM	
Cc1c(C2(c3cc(Br)c(O)c(Br)c3C)OS(=O)(=O)c3ccccc32)cc(Br)c(O)c1Br [Bromcresol green]	45.4 µM	
Nc1c(CC(=O)O)cccc1C(=O)c1ccc(Br)cc1 [Bromfenac sodium sesquihydrate]	> 50 µM	
CN(Cc1cc(Br)cc(Br)c1N)C1CCCCC1 [Bromhexine hydrochloride]	42.9 µM	

Compound	CC50 at 24 h (AC50 (uM) modified / 1000)	further results
O=C1c2ccccc2C(=O)C1c1ccc(Br)cc1 [Bromindione]	> 50 µM	
CC(C)C(Br)C(=O)NC(N)=O (centres unmarked) [Bromisovalum]		CC50 at 24 h (AC50 (uM) modified / 1000, Tox21_110001=Tox21_111815, viability, 1 nM T3 present, 24 h): > 50 µM
O=C(O)CBr [Bromoacetic acid]		CC50 at 24 h (AC50 (uM) modified / 1000, Tox21_110001=Tox21_200657, viability, 1 nM T3 present, 24 h): > 90 µM
N#CCBr [Bromoacetonitrile]	> 100 µM	
Brc1ccccc1 [Bromobenzene]	> 90 µM	
O=C(O)C(Cl)Br (centres unmarked) [Bromochloroacetic acid]		CC50 at 24 h (AC50 (uM) modified / 1000, Tox21_110001=Tox21_200894, viability, 1 nM T3 present, 24 h): > 90 µM
ClCBr [Bromochloromethane]		CC50 at 24 h (AC50 (uM) modified / 1000, Tox21_110001=Tox21_200790, viability, 1 nM T3 present, 24 h): > 100 µM
ClC1=C(Cl)C2(Cl)C(CBr)CC1(Cl)C2(Cl)Cl (centres unmarked) [Bromociclen]		CC50 at 24 h (AC50 (uM) modified / 1000, Tox21_110001=Tox21_112345, viability, 1 nM T3 present, 24 h): 22.4 µM; CC50 at 24 h (AC50 (uM) modified / 1000, Tox21_110001=Tox21_301856, viability, 1 nM T3 present, 24 h): 36.9 µM
CC1=C(Br)C(=O)C(Br)=C/C1=C(/c1ccccc1S(=O)(=O)O)c1cc(Br)c(O)c(Br)c1C [Bromocresol green sodium salt]	44.7 µM	
CC(C)C[C@H]1C(=O)N2CCC[C@H]2[C@]2(O)O[C@](NC(=O)[C@@H]3C=C4c5cccc6[nH]c(Br)c(c56)C[C@H]4N(C)C3)(C(C)C)C(=O)N12 [Bromocriptine]	> 50 µM	
O=C(O)C(Cl)(Cl)Br [Bromodichloroacetic acid]		CC50 at 24 h (AC50 (uM) modified / 1000, Tox21_110001=Tox21_200923, viability, 1 nM T3 present, 24 h): > 90 µM
ClC(Cl)Br [Bromodichloromethane]		CC50 at 24 h (AC50 (uM) modified / 1000, Tox21_110001=Tox21_200806, viability, 1 nM T3 present, 24 h): > 90 µM
CCBr [Bromoethane]		CC50 at 24 h (AC50 (uM) modified / 1000, Tox21_110001=Tox21_200355, viability, 1 nM T3 present, 24 h): > 90 µM
O=[N+]([O-])c1ccc(O/N=C/c2cc(Br)c(O)c(Br)c2)c([N+](=O)[O-])c1 [Bromofenoxim]	26 µM	
BrC(Br)Br [Bromoform]		CC50 at 24 h (AC50 (uM) modified / 1000, Tox21_110001=Tox21_200189, viability, 1 nM T3 present, 24 h): > 90 µM
COP(=S)(OC)Oc1cc(Cl)c(Br)cc1Cl [Bromofos]		CC50 at 24 h (AC50 (uM) modified / 1000, Tox21_110001=Tox21_301918, viability, 1 nM T3 present, 24 h): > 90 µM
Fc1c(F)c(F)c(Br)c(F)c1F [Bromopentafluorobenzene]	> 90 µM	
O=S1(=O)OC(c2cc(Br)c(O)c(Br)c2)(c2cc(Br)c(O)c(Br)c2)c2ccccc21 [Bromophenol blue]	63.9 µM	
CCN(CC)CCNC(=O)c1cc(Br)c(N)cc1OC [Bromopride]	> 50 µM	
CCCCCCCC(=O)Oc1c(Br)cc(C#N)cc1Br [Bromoxynil octanoate]	> 90 µM	
N#Cc1cc(Br)c(O)c(Br)c1 [Bromoxynil]	> 90 µM	
O=C(CCCN1CCC(O)(c2ccc(Br)cc2)CC1)c1ccc(F)cc1 [Bromperidol]	> 20 µM	
Clc1ccc(C2(Cn3cncn3)CC(Br)CO2)c(Cl)c1 (centres unmarked) [Bromuconazole]	> 90 µM	

— PMC6792352, “Limited Chemical Structural Diversity Found to Modulate Thyroid Hormone Receptor in the Tox21 Chemical Library” (Environmental Health Perspectives, 2019)
